Source: the OligoGym collection
Several values for one entry are separate records, joined by “and”; a condition that tells them apart may be missing. Equal values may be shown once. After the bases stand the sugars from the 5' end (letter, count) and the backbone: PS all phosphorothioate, else s phosphorothioate and o phosphodiester by linkage. Methylation of C is not given here. k = constrained ethyl (cEt); d = 2'-deoxy (DNA)

Target: MALAT1
Conditions: ASO, A431, 0.005 µM

Sequence | target mRNA inhibition
GATACCTGTCTGAGGC (sugars k3 d10 k3, PS) | 33%
CCACTTACTGGTTTAA (sugars k3 d10 k3, PS) | 33%
TCAAACTAAGCTACTA (sugars k3 d10 k3, PS) | -1%
TCTGACTTTGTATGTA (sugars k3 d10 k3, PS) | 48%
TTTAGAGGGCCTCTAT (sugars k3 d10 k3, PS) | 17%
CCGGAACTTTTAAAAT (sugars k3 d10 k3, PS) | 13%
GCTGAACTATCACAAT (sugars k3 d10 k3, PS) | 27%
ACCTTGAAACCGATTA (sugars k3 d10 k3, PS) | 45%
TGCCGACCTCACGGAT (sugars k3 d10 k3, PS) | 24%
CTTAAAGCACTTCTTG (sugars k3 d10 k3, PS) | -34%
CAGCTTATGGAACTTG (sugars k3 d10 k3, PS) | -33%
CAGTACGAAACTCCCC (sugars k3 d10 k3, PS) | 30%
ATAATCTCCCACCTGT (sugars k3 d10 k3, PS) | 17%
TTTAGGATTCTAGACA (sugars k3 d10 k3, PS) | 25%
GAAGAGCATTGGAGAT (sugars k3 d10 k3, PS) | 49%
ATCCCTTCAGGATCAT (sugars k3 d10 k3, PS) | 19%
AAAAACTTATCTGCGG (sugars k3 d10 k3, PS) | 49%
ATTCCTTATTTAGAGG (sugars k3 d10 k3, PS) | -11%
CGTCATGGATTTCAAG (sugars k3 d10 k3, PS) | 40%
ACCCCCACGCCAACAC (sugars k3 d10 k3, PS) | 23%
AAACGGGTCATCAAAC (sugars k3 d10 k3, PS) | 19%
GCTTTGTTGTCTCTCC (sugars k3 d10 k3, PS) | 93% and 97%
CTATCTTCTATACTTC (sugars k3 d10 k3, PS) | 24%

Sequence | target mRNA inhibition
CAAACTACACATGCAG (sugars k3 d10 k3, PS) | 6%
ATCAGAACAGTACTGC (sugars k3 d10 k3, PS) | 35%
TTCGCAGACAAAGTTT (sugars k3 d10 k3, PS) | 22%
CAAACTTGCCATCTAC (sugars k3 d10 k3, PS) | 11%
GTATGACATATAATCT (sugars k3 d10 k3, PS) | 55% and 77%
TCACGGATTTTTACCA (sugars k3 d10 k3, PS) | 28%
TGAATTCAACTGGAAG (sugars k3 d10 k3, PS) | 36%
GGAATTCGATCACCTT (sugars k3 d10 k3, PS) | 29%
TGGCATATGCAGATAA (sugars k3 d10 k3, PS) | 69% and 89%
TCCCCCCCAAGATTGC (sugars k3 d10 k3, PS) | -3%
CGGGATCAGAACAGTA (sugars k3 d10 k3, PS) | 24%
GTAGTTGTATTAATCT (sugars k3 d10 k3, PS) | 68% and 65%
GTTAACTAGGCTTTAA (sugars k3 d10 k3, PS) | 23%
GAAGTGTTTACACTGC (sugars k3 d10 k3, PS) | 11%
TAGCTTGACAAGCAAT (sugars k3 d10 k3, PS) | 12%
TAGTGTAAAACATTGC (sugars k3 d10 k3, PS) | 35%
GACAAGGCAGTTATAT (sugars k3 d10 k3, PS) | 1%
GATTATGGATCATGCC (sugars k3 d10 k3, PS) | 47% and 61%
GATCATTAAGCCACTT (sugars k3 d10 k3, PS) | 10%
TAGGATCCTCTACGCA (sugars k3 d10 k3, PS) | 23%
TTCCTTATTTAGAGGG (sugars k3 d10 k3, PS) | 14%
AAACTTGCCATCTACT (sugars k3 d10 k3, PS) | -4%
